Experimental data reported in patent US12060355B2, “Compounds for use in the treatment of fascioliasis” (Merck Patent GmbH, priority 2018, dated 2024).
pIC50: −log10 of the molar value. Like-named read-outs stand apart in the source and are kept apart here.

Legend:
[1] = tested on: human HepG2 cell lines; format: cell-based; settings: human HepG2 cell line
[2] = tested on: human MRC-5 cell line; test: Cytotoxicity against human MRC-5 cell line; format: cell-based
Experimental: (§1) The routine biological assays using adult or juvenile S. mansoni worms and cytotoxicity assays using MRC-5 cells have been disclosed previously in Mansour, N. R., et al. (2016). “High Throughput Screening Identifies Novel Lead Compounds with Activity against Larval, Juvenile and Schistosoma mansoni PLoS Negl Trop Dis 10(4): e0004659. Cytotoxicity assays using the HepG2 cell line were carried out as described in Molecular Diversity (2015) 19, 251-261. • (a) F. hepatica adult fluke motility score tested at 5 μM. Motility is scored as per the table below: • Good movement Score 1 • (Curled, sticking on wall, movement on petri plate or conical flask) • Moderate movement Score 2 • (Less vigor but more than 10 seconds pulses or peristaltic waves) • Resting Score 3 • (Less than 10 second pulses in head and body) • Apathetic Score 4 • (Head and body with less than 2 second pulses) • Faint movement of suckers Score 5 • (Movement of oral or ventral suckers only, whole body paralyzed) • Inert Score 6 • (No movement at all or dead) • (b) S. mansoni adult worms • (c) S. mansoni juvenile worms • (d) S. haemotobium adult worms • (e) Cytotoxicity against human MRC-5 cell line • (f) Cytotoxicity against human HepG2 cell lines

[3] = tested on: S. mansoni juvenile worms; test: S. mansoni juvenile worm assay, in vitro; format: cell-based; settings: Schistosoma mansoni, read-out: S. mansoni Juvenile
Experimental: as §1

[4] = tested on: S. mansoni adult worms; test: S. mansoni adult worm assay, in vitro; format: cell-based; settings: Schistosoma mansoni, read-out: S. mansoni Adult
Experimental: as §1

[5] = tested on: F. hepatica adult fluke; test: F. hepatica adult fluke motility score, in vitro; format: cell-based, Fasciola hepatica; parameters: key: Good movement Score 1 • (Curled, sticking on wall, movement on petri plate or conical flask); Moderate movement Score 2 • (Less vigor but more than 10 seconds pulses or peristaltic waves); Resting Score 3 • (Less than 10 second pulses in head and body); Apathetic Score 4 • (Head and body with less than 2 second pulses); Faint movement of suckers Score 5 • (Movement of oral or ventral suckers only, whole body paralyzed); Inert Score 6 • (No movement at all or dead); settings: for F. hepatica motility score after 24 h / F. hepatica motility score after 48 h / F. hepatica motility score after 72 h: adult fluke; for F. hepatica motility score after 24 h: score 1 (good movement) to 6 (inert); for F. hepatica motility score after 48 h / F. hepatica motility score after 72 h: score 1 to 6 (inert)
Source text: The routine biological assays using adult liver fluke are described in Alessandra Crusco, Cinzia Bordoni, Anand Chakroborty, Kezia C. L. Whatley, Helen Whiteland, Andrew D. Westwell, Karl F. Hoffmann, “Design, synthesis and anthelmintic activity of 7-keto-sempervirol analogues”, European Journal of Medicinal Chemistry, Volume 152, 2018, Pages 87-100.
The routine biological assays using adult or juvenile S. mansoni worms and cytotoxicity assays using MRC-5 cells have been disclosed previously in Mansour, N. R., et al. (2016). “High Throughput Screening Identifies Novel Lead Compounds with Activity against Larval, Juvenile and Schistosoma mansoni PLoS Negl Trop Dis 10(4): e0004659. […] Motility is scored as per the table below: • Good movement Score 1 • (Curled, sticking on wall, movement on petri plate or conical flask) • Moderate movement Score 2 • (Less vigor but more than 10 seconds pulses or peristaltic waves) • Resting Score 3 • (Less than 10 second pulses in head and body) • Apathetic Score 4 • (Head and body with less than 2 second pulses) • Faint movement of suckers Score 5 • (Movement of oral or ventral suckers only, whole body paralyzed) • Inert Score 6 • (No movement at all or dead) • (b) S. mansoni adult worms • (c) S. mansoni juvenile worms • (d) S. haemotobium adult worms • (e) Cytotoxicity against human MRC-5 cell line • (f) Cytotoxicity against human HepG2 cell lines

[6] = tested on: juvenile worms; test: In vivo mouse model infected with juvenile worms, worm recovery; parameters: species or system S. mansoni; settings: Schistosoma mansoni, 360 h, mice, juvenile infection, Formulation F1, read-out: Percent worm reduction
Experimental: Methods for the subcutaneous infection of mice and subsequent worm recovery were as described in Mansour et al (2016) except that infection was with 150 cercariae and the perfusion medium was citrate saline (0.9% sodium chloride, 1.5% tri-sodium citrate). Perfusion was carried out 8 days (adult infections) or 15 days (juvenile infections) after treatment. Perfuseate was collected into 30 mL universal tubes. RBC (Red Blood Cells) were removed by allowing the perfuseate to settle for 10 min, removal of most of the supernatant and washing once as above with 10 mL perfusion medium. A drop of dilute aqueous saponin solution was added to lyse any remaining RBC and the worm suspension poured into a grid-marked small petri dish. The tube was rinsed out into the petri dish and examined for any remaining worms. Worms were counted using a dissecting microscope. The mouse livers removed after perfusion were squashed between two thick glass plates and examined visually and any remaining worms added to those counted as above.
For testing efficacy against the juvenile worms, treatment was on day 25 post infection and for testing against the adult worms on day 42 post infection. Drugs were suspended in 7% Tween-80/3% Ethanol/double distilled water and drug dispersal was facilitated by vortexing and using a sonicating water bath (Formulation F1). […]

COc1ccc(-c2c(C(C)C)nc3cnc(-c4cccc(C(F)(F)F)c4)cn23)cc1O [Example 1, 2-methoxy-5-[2-(propan-2-yl)-6-[3-(trifluoromethyl)phenyl]imidazo[1,2-a]pyrazin-3-yl]phenol]
Cytotox HepG2 [1]: >11.1 µM
Cytotox MRC-5 [2]: 21.8 µM

CC(C)c1nc2cnc(-c3cccc(C(F)(F)F)c3)cn2c1-c1ccc(OP(=O)(O)O)cc1F [Example 3, 3-fluoro-4-[2-(propan-2-yl)-6-[3-(trifluoromethyl)phenyl]imidazo[1,2-a]pyrazin-3-yl]phenoxyphosphonic acid]
pIC50 [3]: 6.89
pIC50 [4]: > 7.31
Cytotox HepG2 [1]: 9.2 µM

Cc1nc2cnc(-c3cccc(C(F)(F)F)c3)cn2c1-c1ccc(O)cc1F [Example 6, 3-fluoro-4-[2-methyl-6-[3-(trifluoromethyl)phenyl]imidazo[1,2-a]pyrazin-3-yl]phenol]
Cytotox MRC-5 [2]: 15.8 µM

CCc1nc2cnc(-c3cccc(C(F)(F)F)c3)cn2c1-c1ccc(OC)c(O)c1 [Example 7, 2-methoxy-5-[2-ethyl-6-[3-(trifluoromethyl)phenyl]imidazo[1,2-a]pyrazin-3-yl]phenol]
Cytotox HepG2 [1]: >30 µM
Cytotox MRC-5 [2]: >50 µM

CCc1nc2cnc(-c3cccc(C(F)(F)F)c3)cn2c1-c1ccc(O)cc1F [Example 8, 3-fluoro-4-[2-ethyl-6-[3-(trifluoromethyl)phenyl]imidazo[1,2-a]pyrazin-3-yl]phenol]
Cytotox HepG2 [1]: 18.7 µM
Cytotox MRC-5 [2]: 17.3 µM

CC(C)c1nc2cnc(-c3cccc(C(F)(F)F)c3)cn2c1-c1ccc(O)cc1F [Example 9, 3-fluoro-4-[2-(propan-2-yl)-6-[3-(trifluoromethyl)phenyl]imidazo[1,2-a]pyrazin-3-yl]phenol]
Cytotox HepG2 [1]: 9 µM
Cytotox MRC-5 [2]: 13.7 µM

Cc1nc2cnc(-c3ccc(F)c(C(F)(F)F)c3)cn2c1-c1ccc(O)cc1F [Example 10, 3-fluoro-4-[2-methyl-6-[4-fluoro-3-(trifluoromethyl)phenyl]imidazo[1,2-a]pyrazin-3-yl]phenol]
Cytotox HepG2 [1]: >11.1 µM
Cytotox MRC-5 [2]: 14.4 µM

CC(C)c1nc2cnc(-c3ccc(F)c(C(F)(F)F)c3)cn2c1-c1c(F)cc(O)cc1F [Example 17, 3,5-difluoro-4-[2-(propan-2-yl)-6-[4-fluoro-3-(trifluoromethyl)phenyl]imidazo[1,2-a]pyrazin-3-yl]phenol]
Mean motility score of F hepatica at 24 h ([5]; 0.04 μM): 1, 1, 1
Mean motility score of F hepatica at 48 h ([5]; 0.04 μM): 1, 1, 1
Mean motility score of F hepatica at 72 h ([5]; 0.04 μM): 1, 1, 1
Mean motility score of F hepatica at 24 h ([5]; 0.2 μM): 3
Mean motility score of F hepatica at 48 h ([5]; 0.2 μM): 3
Mean motility score of F hepatica at 72 h ([5]; 0.2 μM): 6
Mean motility score of F hepatica at 24 h ([5]; 1 μM): 6, 6, 6
Mean motility score of F hepatica at 48 h ([5]; 1 μM): 6, 6, 6
Mean motility score of F hepatica at 72 h ([5]; 1 μM): 6, 6, 6
Mean motility score of F hepatica at 24 h ([5]; 5 μM): 6, 6, 6
Mean motility score of F hepatica at 48 h ([5]; 5 μM): 6, 6, 6
Mean motility score of F hepatica at 72 h ([5]; 5 μM): 6, 6, 6
F. hepatica motility score after 24 h ([5]; 5 μM): (6, 6, 6) at 5 μM
F. hepatica motility score after 48 h ([5]; 5 μM): (6, 6, 6) at 5 μM
F. hepatica motility score after 72 h ([5]; 5 μM): (6, 6, 6) at 5 μM
Cytotox HepG2 [1]: 7.1 µM
inhibition in vivo at 50 mg/kg ([6]; oral 50 mg/kg): 38%
inhibition in vivo at 200 mg/kg ([6]; oral 200 mg/kg): 84%

CC(C)c1nc2cnc(-c3ccc(F)c(C(F)(F)F)c3)cn2c1-c1c(F)cc(OP(=O)(O)O)cc1F [Example 40, 3,5-difluoro-4-{6-[4-fluoro-3-(trifluoromethyl)phenyl]-2-(propan-2-yl)imidazo[1,2-a]pyrazin-3-yl}phenoxyphosphonic acid]
pIC50 [3]: 7.60
pIC50 [4]: 7.57
Cytotox HepG2 [1]: 6.5 µM

CC(C)c1nn2ccc(-c3ccc(F)c(C(F)(F)F)c3)cc2c1-c1ccc2[nH]ncc2c1F [Example 55, 4-Fluoro-5-[5-(4-fluoro-3-trifluoromethyl-phenyl)-2-isopropylpyrazolo[1,5-a]pyridin-3-yl]-1H-indazole]
F. hepatica motility score after 24 h ([5]; 5 μM): (6, 6, 6) at 5 μM
F. hepatica motility score after 48 h ([5]; 5 μM): (6, 6, 6) at 5 μM
F. hepatica motility score after 72 h ([5]; 5 μM): (6, 6, 6) at 5 μM
pIC50 ([3]; juvenile worms in vitro, IC50): 7.66
pIC50 ([4]; adult worms in vitro): 7.55
Cytotox HepG2 [1]: 11.1 µM

O=P(O)(O)Oc1cc(F)c(-c2c(C3CC3)nc3cnc(-c4ccc(F)c(C(F)(F)F)c4)cn23)c(F)c1 [Example 62, Phosphoric acid mono-{4-[2-cyclopropyl-6-(4-fluoro-3-trifluoromethyl-phenyl)-imidazo[1,2-a]pyrazin-3-yl]-3,5-difluoro-phenyl} ester]
pIC50 [3]: 8.43
Cytotox HepG2 [1]: 14.8 µM

CC(C)c1nc2ccc(-c3cccc(C(F)(F)F)c3)cn2c1-c1ccc(O)cc1F [Example 94, 3-fluoro-4-[2-isopropyl-6-[3-(trifluoromethyl)phenyl]imidazo[1,2-a]pyridin-3-yl]phenol]
F. hepatica motility score after 24 h ([5]; 5 μM): (6, 6, 6)
F. hepatica motility score after 48 h ([5]; 5 μM): (6, 6, 6)
F. hepatica motility score after 72 h ([5]; 5 μM): (6, 6, 6)
pIC50 ([3]; juvenile worms in vitro, IC50): 6.60
Cytotox HepG2 [1]: 10.6 µM
